Results on 10 compounds are retold here after patent US4943629A, “Antidiabetic alpha-substituted phosphonates” (American Cyanamid Company, priority 1988, dated 1990).

pEC50, pIC50: −log10 of the molar value.

Assay [1] concerns the target T1, purified rat liver 6-phosphofructo-1-kinase (Rattus norvegicus, UniProt P30835).
T1 construct: purified rat liver 6-phosphofructo-1-kinase; from tissue; host or cells: rat liver
T1 sequence (P30835 2-780 limits assumed): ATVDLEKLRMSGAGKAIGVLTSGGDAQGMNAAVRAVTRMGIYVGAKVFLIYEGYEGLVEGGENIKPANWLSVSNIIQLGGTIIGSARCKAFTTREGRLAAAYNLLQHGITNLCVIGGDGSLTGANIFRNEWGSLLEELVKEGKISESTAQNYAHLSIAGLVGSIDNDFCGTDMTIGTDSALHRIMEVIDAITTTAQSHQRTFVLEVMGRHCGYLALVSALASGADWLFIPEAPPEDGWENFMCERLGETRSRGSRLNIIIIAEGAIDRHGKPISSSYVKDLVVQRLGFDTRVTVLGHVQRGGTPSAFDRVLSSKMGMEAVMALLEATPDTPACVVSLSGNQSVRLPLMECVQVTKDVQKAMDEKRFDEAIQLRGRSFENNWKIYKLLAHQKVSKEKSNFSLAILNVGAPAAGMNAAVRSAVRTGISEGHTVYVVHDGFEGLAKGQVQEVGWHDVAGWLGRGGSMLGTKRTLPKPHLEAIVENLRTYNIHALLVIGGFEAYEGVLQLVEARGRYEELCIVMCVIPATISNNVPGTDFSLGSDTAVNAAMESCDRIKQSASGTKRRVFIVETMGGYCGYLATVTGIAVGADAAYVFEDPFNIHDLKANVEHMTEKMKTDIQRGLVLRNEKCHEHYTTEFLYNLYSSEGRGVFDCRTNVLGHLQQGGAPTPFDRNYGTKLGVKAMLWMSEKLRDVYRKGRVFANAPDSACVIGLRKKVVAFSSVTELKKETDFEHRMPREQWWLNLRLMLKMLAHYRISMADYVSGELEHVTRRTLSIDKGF
In words: stimulation of 6-phosphofructo-1-kinase (PFK), aldolase-coupled spectrophotometric assay. The class given is biochemical. The following applies: pH 7.3, 30° C., 1 mM ATP, 0.2 mM fructose-6-phosphate, read-out: PFK ED50. As to the method:
(§1) The novel compounds of this invention were tested for their ability to stimulate the enzyme 6-phosphofructo-1-kinase ("PFK") and for their ability to inhibit the enzyme fructose-1,6-bisphosphatase ("FBP") using the procedures described below.
Effects on the activity of PFK were determined using an aldolase-coupled, spectrophotometric assay. The assay mixture contained: 50 mM N-tris(hydroxymethyl) methyl-2-aminoethanesulfonic acid, hydrochloride ("TES-HCl", pH 7.3); 1 mM ethylenediaminetetraacetic acid ("EDTA"); 6 mM magnesium chloride; 2.5 mM dithiothreitol; 0.165 mM nicotinamide adenine dinucleotide ("NADH"); 1 mM adenosine triphosphate ("ATP"); 0.04U aldolase; 0.4U triose phosphate isomerase; 1.5U alpha-glycerolphosphate dehydrogenase; 0.lU of purified rat liver 6-phosphofructo-1-kinase; and various concentrations of the test compound, all in a final volume of 1 ml. The mixture was preincubated for 3 minutes at 30° C. and then the reaction was initiated with 0.2 mM fructose-6-phosphate. The rate of decrease in absorbance at 340 nm was measured at 30° C. with a recording spectrophotometer.

In assay [2] the target is T2, purified rat liver FBP (fructose-1,6-bisphosphatase) (Rattus norvegicus, UniProt P19112).
T2 construct: purified rat liver FBP; from tissue; host or cells: rat liver
T2 sequence (P19112 2-363 limits assumed): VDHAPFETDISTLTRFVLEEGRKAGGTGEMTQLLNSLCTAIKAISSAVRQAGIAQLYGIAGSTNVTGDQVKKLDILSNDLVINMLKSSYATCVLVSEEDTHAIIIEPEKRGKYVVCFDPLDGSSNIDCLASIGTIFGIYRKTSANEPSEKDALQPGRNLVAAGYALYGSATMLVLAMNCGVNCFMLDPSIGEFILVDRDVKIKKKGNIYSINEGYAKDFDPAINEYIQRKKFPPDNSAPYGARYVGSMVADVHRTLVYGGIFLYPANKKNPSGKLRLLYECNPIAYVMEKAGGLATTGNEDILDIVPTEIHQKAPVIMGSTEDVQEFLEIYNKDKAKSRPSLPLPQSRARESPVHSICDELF
In words: inhibition of fructose-1,6-bisphosphatase (FBP), spectrophotometric assay. To be noted: pH 7.4, 30° C., 0.02 mM fructose-1,6-bis-phosphate. It counts as biochemical. The protocol: as §1
Effects on the activity of FBP were determined using a spectrophotometric assay. The assay mixture contained: 100 mM tris(hydroxymethyl)aminomethane, hydrochloride ("TRIS-HCl", pH 7.4); 2.5 mM beta-mercaptoethanol; 2 mM magnesium chloride; 0.05 mM EDTA; 0.2 mM nicotinamide adenine dinucleotide phosphate ("NADP"); 10 U phosphoglucose isomerase; 5 U glucose-6-phosphate dehydrogenase; 0.02U of purified rat liver FBP; and various concentrations of the test compound, all in a final volume of 1 ml. The mixture was preincubated for 3 minutes at 30° C. and then the reaction was initiated with 0.02 mM fructose-1,6-bis-phosphate. The rate of increase in absorbance at 340 nm was measured at 30° C. with a recording spectrophotometer

As for `O=P(O)(O)OC[C@H]1OC(C(F)P(=O)(O)O)[C@@H](O)[C@@H]1O` (mixture of isomers) [2,5-Anhydro-1-deoxy-1-fluoro-1-phosphono-D-glucitol and D-mannitol, 6-(dihydrogen phosphate) mixture (70:30)], in assay [1], the pEC50 is 5.00. The negative-log IC50 (pIC50) (commonly the IC50 on a negative log10 scale, so that one unit is a factor of ten) in assay [2] is 4.27.

With `O=P(O)(O)OC[C@H]1O[C@@](CO)(C(F)P(=O)(O)O)[C@@H](O)[C@@H]1O` (single isomer, unassigned) [2,5-Anhydro-1-deoxy-1-fluoro-2-(hydroxymethyl)-1-phosphono-D-glucitol, 6-(dihydrogen phosphate)], the pEC50 in assay [1] is 6.15. This compound also gave a pIC50 in assay [2] of 3.96.

As for `O=P(O)(O)OC[C@H]1O[C@H](C(F)(F)P(=O)(O)O)[C@@H](O)[C@@H]1O` [2,5-Anhydro-1-deoxy-1,1-difluoro-1-phosphono-D-mannitol, 6-(dihydrogen phosphate)], in assay [1], the pEC50 was 4.85. In assay [2], this compound gave a pIC50 of 3.65.

Turning to `O=P(O)(O)OC[C@H]1O[C@H](C(F)P(=O)(O)O)[C@@H](O)[C@@H]1O` (stereo partly drawn) [2,5-Anhydro-1-deoxy-1-fluoro-1-phosphono-D-mannitol, 6-(dihydrogen phosphate)], in assay [1], the pEC50 was 4.66. Moreover, the pIC50 in assay [2] was 3.94.

For `O=P(O)(O)OC[C@H]1O[C@](CO)(C(F)P(=O)(O)O)[C@@H](O)[C@@H]1O` (stereo partly drawn) [2,5-Anhydro-2-C-(fluorophosphonomethyl)-D-glucitol, 6-(dihydrogen phosphate)], the pEC50 in assay [1] was 5.89. The same compound had a pIC50 in assay [2] of 3.42.

Take `O=P(O)(O)OC[C@H]1O[C@](CO)(C(O)P(=O)(O)O)[C@@H](O)[C@@H]1O` (stereo partly drawn) [2,5-Anhydro-2-C-(hydroxyphosphonomethyl)-D-glucitol, 6-(dihydrogen phosphate)]: the pEC50 in assay [1] was 4.70. This compound gave a pIC50 in assay [2] of 3.41.

Regarding `O=P(O)(O)OC[C@H]1O[C@H](CC(F)(F)P(=O)(O)O)[C@@H](O)[C@@H]1O` [3,6-Anhydro-1,2-dideoxy-1,1-difluoro-1-phosphono-D-manno-heptitol, 7-(dihydrogen phosphate)], the pEC50 in assay [1] was 5.52. This compound gave a pIC50 in assay [2] of 4.57.

In the case of `O=P(O)(O)OC[C@H]1O[C@H](CC(F)P(=O)(O)O)[C@@H](O)[C@@H]1O` (stereo partly drawn) [[1R(and 1S)]-3,6-Anhydro-1,2-dideoxy-1-fluoro-1-phosphono-D-manno-heptitol, 7-(dihydrogen phosphate)], the pEC50 in assay [1] was 5.89. Besides, the pIC50 in assay [2] was 4.21.

Turning to `O=P(O)(O)OC[C@H]1O[C@H](C(O)P(=O)(O)O)[C@@H](O)[C@@H]1O` (stereo partly drawn) [[1R(and/or 1S)]-2,5-Anhydro-1-C-phosphono-D-mannitol, 6-(dihydrogen phosphate)], the pEC50 in assay [1] was 4.89. The same compound showed a negative-log IC50 (pIC50) in assay [2] of 4.36.

For `O=P(O)(O)OC[C@H]1O[C@H](CC(O)P(=O)(O)O)[C@@H](O)[C@@H]1O` (stereo partly drawn) [[1R(and/or 1S)]-3,6-Anhydro-2-deoxy-1-phosphono-D-manno-heptitol, 7-(dihydrogen phosphate)], in assay [1], the pEC50 is 6.00. In assay [2], this compound showed a pIC50 of 4.21.
